Data as given in article PMC7179439, “Synthesis and Structure-Activity Relationship Studies of Hydrazide-Hydrazones as Inhibitors of Laccase from Trametes versicolor” (Molecules, 2020).
Where “and” joins values, the source holds several entries; their conditions need not be identical. Equal entries are not always repeated. Where two headings read alike, the source gives them in different places.

Tests used:
[1] = molecular target: laccase from Trametes versicolor; test: Laccase enzyme inhibition assay with syringaldazine as substrate; type: biochemical; design: key to The type of inhibition: a: competitive; b: uncompetitive; c: not determined; d: non-competitive; conditions: for Ki: 25 °C, pH 5.3, syringaldazine substrate, 6.25% v/v organic co-solvent; for The type of inhibition / type of inhibition: Lineweaver-Burk transformation
Experimental: The activity of laccase was determined using the procedure described by Leonowicz and Grzywnowicz. Basically, a standard reaction mixture contained the enzyme in McIlvaine buffer (1.5 mL, pH 5.3) in the presence or absence of tested compounds (0.1 mL) and substrate – syringaldazine (0.1 mL). Two water-miscible media were tested as suitable co-solvents for hydrazide-hydrazones which are poorly soluble in water. For that purpose, the stability of laccase (40 nM, McIlvaine buffer, pH 5.3) in methanol and DMSO (6.25% v/v) at 25 °C was investigated (see Supplementary Material). The samples containing the enzyme, with a volumetric buffer–co-solvent ratio of 15:1, were withdrawn in different time intervals for 1500 min. A reaction system contained the 1.6 mL of the collected sample and 0.1 mL of syringaldazine (5.9 µM). Laccase activity was determined spectrophotometrically (UV-VIS 1800, Shimadzu, Reinach, Switzerland) by monitoring the changes in absorbance at 525 nm resulted from oxidation of the substrate syringaldazine with an extinction coefficient ε0 = 65000 M^−1·cm^−1 [99]. Kinetic parameters, Km and k3 were determined for two protein concentrations (20 and 40 nM) and with the nine concentrations of syringaldazine (0.59 to 20 µM), using the Michaelis-Menten model, Equation (1):V = Vmax · CS/(Km + CS), k3 = Vmax/CE(1) where Km [µM], k3 [min^–1] – kinetic constants, Vmax – maximal velocity [µM·min^–1], CS – substrate concentration [µM], CE – enzyme concentration [µM].
The parameters of the function were estimated using the nonlinear least square method in Matlab (The Mathworks, R2019a Version 9.6, academic licence). The method was used simultaneously for datasets obtain for different enzyme concertation. The common minimum of error function was found for all considered datasets resulting in one common estimate of each model parameter. The goodness of fit was assessed using the coefficient of determination (R^2); the sum of squared errors (SSE) and root mean squared error (RMSE). The 25 hydrazide-hydrazones, 4-hydroxybenzoic acid (control, 4-HBA), 4-hydroxybenzohydrazide (4a – 4-HBAH), and sodium azide (control) were tested against laccase in the standard reaction mixture. Prior to the substrate addition, the laccase and tested compound were pre-incubated for 10 min at 25 °C. At least three inhibitor concentrations were used in each experiment. All measurements were performed in triplicate. To determine the type of inhibition Lineweaver–Burk transformation was used applying the following equations for competitive (2), uncompetitive (3) and non-competitive model (4). The parameters of these equations were estimated using the linear least square method. 1/V = Km/Vmax · (1 + Ci/Ki) · 1/CS + 1/Vmax(2) 1/V = Km/Vmax · 1/CS + 1/Vmax · (1 + Ci/Ki)(3) 1/V = Km/Vmax · (1 + Ci/Ki) · 1/CS + 1/Vmax · (1 + Ci/Ki)(4) where Km [µM]—Michaelis-Menten constant, Vmax—maximal velocity [µM·min^–1], Ki—inhibition constant [µM], CS—substrate concentration [µM], Ci—inhibitor concentration [µM].

[2] = tested on: laccase from Pleurotus eryngii; conditions: cited from earlier work; for Ki: ABTS as substrate, mixed type of inhibition ref 85
[3] = molecular target: laccase from Pleurotus ostreatus; conditions: ABTS as substrate ref 86; cited from earlier work

| Structure (SMILES) | melting point | Ki [1] | The type of inhibition [1] | type of inhibition [1] | other results |
| --- | --- | --- | --- | --- | --- |
| COc1cccc(/C=N/NC(=O)c2ccc(O)cc2)c1 (hydrate or solvate) [1i, 4-Hydroxy-N’-[(E)-(3-methoxyphenyl)methylidene]benzohydrazide] | 210 to 212 °C | – | – | – | – |
| O=C(N/N=C/c1cccc(-c2ccccc2)c1O)c1ccc(O)cc1 (hydrate or solvate) [2a, 4-Hydroxy-N’-[(E)-(2-hydroxy-3-phenyl-phenyl)methylidene]benzohydrazide monomethanolate] | 215 to 218 °C | – | – | – | – |
| O=C(N/N=C/c1ccccc1)c1ccc(O)cc1 [1a, 4-Hydroxy-N’-[(E)-benzylidene]benzohydrazide] | – | 1470 ± 58 µM | a | – | – |
| O=C(N/N=C/CCc1ccccc1)c1ccc(O)cc1 [1b, 4-Hydroxy-N’-[(E)-3-phenylpropylidene]benzohydrazide] | 243.5 to 244 °C | 1920 ± 163 µM | b | – | – |
| Cc1ccc(/C=N/NC(=O)c2ccc(O)cc2)cc1 [1c, 4-Hydroxy-N’-[(E)-(4-methylphenyl)methylidene]benzohydrazide monomethanolate] | – | 251 ± 26 µM | a | competitive | – |
| O=C(N/N=C/c1ccccc1S(=O)(=O)[O-])c1ccc(O)cc1.[Na+] [1d, Sodium 2-{(E)-[2-(4-hydroxybenzoyl)hydrazinylidene]methyl}benzenesulfonate] | 251 °C (dec.) | ≥ 2400 µM | – | – | – |
| O=C(N/N=C/c1ccccc1O)c1ccc(O)cc1 [1e, 4-Hydroxy-N’-[(E)-(2-hydroxyphenyl)methylidene]benzohydrazide] | – | 674 ± 10 µM | a | competitive | – |
| O.O=C(N/N=C/c1cccc(O)c1)c1ccc(O)cc1 [1f, 4-Hydroxy-N’-[(E)-(3-hydroxyphenyl)methylidene]benzohydrazide monohydrate] | – | 2400 ± 334 µM | a | – | – |
| O=C(N/N=C/c1ccc(O)cc1)c1ccc(O)cc1 [1g, 4-Hydroxy-N’-[(E)-(4-hydroxyphenyl)methylidene]benzohydrazide] | – | 638 ± 35 µM | b | – | – |
| COc1ccccc1/C=N/NC(=O)c1ccc(O)cc1 [1h, 4-Hydroxy-N’-[(E)-(2-methoxyphenyl)methylidene]benzohydrazide] | – | 1060 ± 18 µM | a | – | – |
| COc1cccc(/C=N/NC(=O)c2ccc(O)cc2)c1 [1i, 4-Hydroxy-N’-[(E)-(3-methoxyphenyl)methylidene]benzohydrazide] | – | 416 ± 1.5 µM | a | competitive | – |
| O=C(N/N=C/c1cccc(-c2ccccc2)c1O)c1ccc(O)cc1 [2a, 4-Hydroxy-N’-[(E)-(2-hydroxy-3-phenyl-phenyl)methylidene]benzohydrazide monomethanolate] | – | 25.3 ± 6.9 µM | a | competitive | – |
| CC(C)(C)c1cccc(/C=N/NC(=O)c2ccc(O)cc2)c1O [2b, 4-Hydroxy-N’-[(E)-(3-tert-butyl-2-hydroxyphenyl)methylidene]benzohydrazide] | 240 to 242 °C | 24 ± 5.9 µM | a | competitive | – |
| O=C(N/N=C/c1ccc(O)cc1O)c1ccc(O)cc1 [2c, 4-Hydroxy-N’-[(E)-(2,4-dihydroxyphenyl)methylidene]benzohydrazide] | 294 °C (dec.) | 939 ± 30 µM | b | uncompetitive | inhibitory potency towards laccase [1]: practically inactive |
| O=C(N/N=C/c1cc(Br)ccc1O)c1ccc(O)cc1 [2d, 4-Hydroxy-N’-[(E)-(5-bromo-2-hydroxyphenyl)methylidene]benzohydrazide] | 276 to 278 °C | ≥ 1000 µM | – | – | – |
| COc1cccc(O)c1/C=N/NC(=O)c1ccc(O)cc1 [2e, 4-Hydroxy-N’-[(E)-(6-methoxy-2-hydroxyphenyl)methylidene]benzohydrazide] | 256.5 to 257.5 °C | ≥ 1000 µM | – | – | – |
| COc1cccc(OC)c1/C=N/NC(=O)c1ccc(O)cc1 [2f, 4-Hydroxy-N’-[(E)-(2,6-dimethoxyphenyl)methylidene]benzohydrazide] | 214.5 to 216 °C | ≥ 1000 µM | – | – | inhibitory potency towards laccase [1]: practically inactive |
| COc1cc(/C=N/NC(=O)c2ccc(O)cc2)ccc1O [2g, 4-Hydroxy-N’-[(E)-(4-hydroxy-3-methoxyphenyl)methylidene]benzohydrazide] | 218.5 to 220 °C | 251 ± 38 µM | a | competitive | – |
| COc1ccc(C(=O)N/N=C/c2cccc(-c3ccccc3)c2O)cc1 [2h, 4-Methoxy-N’-[(E)-2-hydroxy-3-phenyl-benzylidene]benzohydrazide] | 240 to 242.5 °C | ≥ 1000 µM | – | – | – |
| Cc1cc(/C=N/NC(=O)c2ccc(O)cc2)c(O)c(CO)c1 [3a, 4-Hydroxy-N’-[(E)-2-hydroxy-3-hydroxymethyl-5-methyl-benzylidene]benzohydrazide] | 229 to 230 °C | ≥ 1000 µM | – | – | – |
| Cc1cc(CO)cc(/C=N/NC(=O)c2ccc(O)cc2)c1O [3b, 4-Hydroxy-N’-[(E)-(5-hydroxymethyl-3-methyl-2-hydroxyphenyl)methylidene]benzohydrazide] | 266 °C (dec.) | ≥ 1000 µM | – | – | – |
| CC(C)(C)c1cc(/C=N/NC(=O)c2ccc(O)cc2)c(O)c(C(C)(C)C)c1 [3c, 4-Hydroxy-N’-[(E)-(3,5-di-tert-butyl-2-hydroxyphenyl)methylidene]benzohydrazide] | 274.5 to 275.5 °C | 17.9 ± 1.3 µM | b | – | – |
| Cc1cc(/C=N/NC(=O)c2ccc(O)cc2)c(O)c(C(C)(C)C)c1 [3d, 4-Hydroxy-N’-[(E)-3-tert-butyl-2-hydroxy-5-methylbenzylidene]benzohydrazide] | 261 to 263 °C and 261 to 262 °C | 26.4 ± 3.4 µM | a | competitive | – |
| Cc1ccc(C(C)C)c(O)c1/C=N/NC(=O)c1ccc(O)cc1 [3e, 4-Hydroxy-N’-[(E)-(2-hydroxy-3-isopropyl-6-methylphenyl)methylidene]benzohydrazide] | 258.5 to 260.5 °C | ≥ 1000 µM | – | – | – |
| COc1cc(O)c(/C=N/NC(=O)c2ccc(O)cc2)c(OC)c1 [3f, 4-Hydroxy-N’-[(E)-(2-hydroxy-4,6-dimethoxyphenyl)methylidene]benzohydrazide] | 231.5 to 234.5 °C | ≥ 1000 µM | – | – | – |
| Cc1cc(/C=N/NC(=O)c2cccc(O)c2)c(O)c(C(C)(C)C)c1 [3g, 3-Hydroxy-N’-[(E)-(3-tert-butyl-2-hydroxy-5-methylphenyl)methylidene]benzohydrazide] | 240 to 242.5 °C | 32 ± 8 µM | d | non-competitive | – |
| O=C(O)c1ccc(O)cc1 [4-HBA, 4-hydroxybenzoic acid, reference compound] | – | ≥ 2400 µM | – | – | inhibitory potency towards laccase [1]: no inhibitory potency |
| COc1ccc(C(=O)NN)cc1 [4b, reference compound] | – | ≥ 2400 µM | – | – | inhibitory potency towards laccase [1]: no inhibitory potency |
| [N-]=[N+]=[N-].[Na+] [NaN3, sodium azide] | – | 2.72 ± 0.3 µM | d | non-competitive | type of inhibition ([2]; ABTS as substrate ref 85): mixed type of inhibition; Ki ([2]; read-out: Kic): 17.6 µM; Ki ([2]; read-out: Kiu): 10.6 µM; Ki [3]: 16.5 µM; type of inhibition [3]: non-competitive |
